# Assay results: patent publication US8865909B2, “Anti-biofilm agents” (Yissum Research Development Company of the Hebrew …, priority 2008, dated 2014)
# Experiments:
# V. harveyi strains = assay: MIC, broth dilution antibacterial susceptibility test; assay type: cell-based
# Protocol: A series of V. harveyi strains (wild-type and mutants), marine bacteria which are used as a widely accepted model for testing quorum sensing, was used in the experiments below.
# MIC was determined according to the CLSI, formerly NCCLS (National Committee for Clinical Laboratory Standards) recommendation for broth dilution antibacterial susceptibility test.
# All the tested V. harveyi strains (adjusted to 0.5 MacFarlane standard suspension) were grown at 30° C., in the presence of the tested agent at concentrations ranging from 2 μM to 10 mM, in 96-well transparent micro-titration plates (NUNC, Denmark).
# After 18 hours of incubation, bacterial growth was determined according to the density measured by absorbance at 595 nm (GENios reader TECAN-Austria).
# Each experiment was conducted in triplicate samples and repeated three times. Based on MIC results, the exemplary anti-biofilm forming agent with the highest MIC values (lowest antibacterial activity) was selected for the anti-quorum sensing activity screening assay.
# Vero cells [1] = assay: Vero cell viability assay (XTT); assay type: cell-based; settings: 160 minutes
# Protocol: The effect of TZD10 on the viability of Vero cells was detected by incubating the cells for 40 minutes with TZD10, and further incubation for 120 minutes with the XTT reagents in the same medium without washings, so that the total incubation time with TZD10 was 160 minutes. The cells were treated with TZD10 for 40 minutes without the XTT reagents that were then added for further 120 minutes incubation.
# MDCK cells [2] = assay: MDCK cells detachment assay; assay type: cell-based, canine
# Protocol: (§1) Madine-Derby canine kidney cells (MDCK) are a non-cancerous, polarized epithelial cell line, used in the research of cell polarity mechanisms, and in the research of pathogen interactions with epithelial tissues. These cells produce monolayers in which cells are polarized and tightly connected to each other. The cells were treated with TZD10 for 40 minutes without the XTT reagents that were then added for further 120 minutes incubation. The influence of TZD10 on the attachment of MDCK cells was investigated using an identical method used for the Vero cells (the 96 well polystyrene plate method) as presented hereinabove.
# [3] = system: V. harveyi wild-type strain (BB120) matured biofilms; assay: Biofilm disruption by confocal scanning laser microscopy; assay type: cell-based; settings: 2, 20, 200 μM (lower than MIC), 18 hours
# Protocol: The biofilm eradication concentration (BEC) for exemplary ABF agents according to embodiments of the present invention was measured as the effect of the tested agent on mature and fully formed biofilm. The effect of TZD10, an exemplary ABF agent according to embodiments of the present invention, on the depth and the density of the biofilm was determined using fluorescent stains analyzed by computer image analysis using confocal scanning laser microscopy (CLSM). Briefly, biofilms were allowed to form in sterile micrtiture dishes as described hereinabove. After washing the formed biofilm, fresh AB medium and an appropriate medium containing TZD10 were added and incubated for additional 18 hours. Bacteria in biofilm were stained with fluorescent dyes to detect the biofilm. The stained biofilms were examined with a Zeiss LSM 410 confocal laser scanning system attached to a Zeiss Axiovert inverted microscope fitted with a 40×/1.3 Plan-Neofluar lens. In each experiment, exciting laser intensity, background level, contrast and electronic zoom size were maintained at the same level. At least 3 random fields for each experiment were chosen and scored from each sample. Biofilm structure was analyzed as a series of horizontal opto-digital sections. […]
# V. harveyi biofilm = assay: Quorum sensing (luminescence) in mature biofilm; assay type: cell-based; design: reduction of QS: dose or concentration left out as unconfirmed; settings: for reduction of QSI: maximal tested concentration
# Protocol: The working protocol for the biofilm disruption assays were conducted as follows. The tested V. harveyi strains (BB120, BB721, BB170, BB886) were grown to cell density of 1.5-2.5×10^9 CFU/ml (15-16 hrs) in AB medium at 30° C. with constant shaking and the suspension was diluted (1:5,000) in fresh AB medium. Aliquot of the suspension (200 μl) was added to each well in a white 96-well plate (NUNC) and incubated for 18 hours at 30° C. without shaking. The formed biofilm was carefully washed twice with saline. Fresh AB medium containing the exemplary ABF agent at the various tested concentrations, and either 10% (v/v) spent medium of V. harveyi MM30 (containing AI-1) or 10% (v/v) spent medium of V. harveyi BB152 (containing AI-2) were added, for further 18 hours of incubation as described above. Each sample was also tested without the spent medium as control to examine self induction. Positive and negative controls were included as described above. Each sample was tested in three separate biological experiments in triplicate samples. Luminescence was calculated as the AUC using the trapezoid rule.
# [4] = Solubility observed in the Vero cell assay wells; assay type: physicochemical; settings: at a concentration of 100 μg/ml and above; crystals at bottom of well
# MDCK cells [5] = assay: MDCK cells viability assay (XTT); assay type: cell-based, canine; settings: 40 minutes + 120 minutes with XTT
# Protocol: as §1
# Vero cells [6] = assay: Vero cells detachment from T-flasks; assay type: cell-based; settings: 100 μg/ml TZD10 + 1.34 mM EDTA in PBS, 40 minutes
# Protocol: Vero cells were grown on for 6 days in T-flask with DMEM+10% FCS+Hepes+Glutamine+Pen-strep (Beit HaEmek). The cells were then washed with PBS and incubated for 40 minutes with 100 μg/ml TZD10+1.34 mM (about 0.5 mg/ml) EDTA in PBS without calcium and magnesium (Beit HaEmek).
smiles,measurement,setting,value
"CCCCCCCCC/C=C1\SC(=O)NC1=O [TZD10, (Z)-5-decylidenethiazolidine-2,4-dione]",antibacterial activity,V. harveyi strains; V. harveyi mutants and wild-type,lack of antibacterial activity per se
same,MIC,V. harveyi strains; Vibrio harveyi,< 10 mM
same,MIC,V. harveyi strains; strain BB120 (wild-type),<10 mM
same,MIC,"V. harveyi strains; strain BB170 (sensor 1-, sensor 2+)",<10 mM
same,MIC,V. harveyi strains; strain BB721 (LuxO null),<10 mM
same,MIC,"V. harveyi strains; strain BB886 (sensor 1+, sensor 2-)",<10 mM
same,toxicity to Vero cells,Vero cells [1]; 125 μg/ml and above,partially cytotoxic
same,toxicity to Vero cells,Vero cells [1]; up to 100 μg/ml,not toxic
same,cell detachment from the polystyrene dish,MDCK cells [2],detached
same,time of detachment compared with Vero cells,MDCK cells [2],observed sooner than it has been observed with Vero cells
same,biofilm disruption,[3],dose response effect of biofilm disruption
same,reduction of QSI activity,"V. harveyi biofilm; AI-1 spent medium, 0.200 μM, BB886",39%
same,reduction of QSI activity,"V. harveyi biofilm; AI-1 spent medium, 0.200 μM, wild-type",62%
same,reduction of QS activity,"V. harveyi biofilm; AI-1 spent medium, 2 μM, BB886",10%
same,reduction of QS activity,"V. harveyi biofilm; AI-1 spent medium, 2 μM, wild type BB120",18%
same,change in QSI,"V. harveyi biofilm; AI-2 spent medium, 2 μM, BB170",minor increase
same,reduction of QSI activity,"V. harveyi biofilm; AI-2 spent medium, 2 μM, BB721 (LuxO null)",25%
same,change in QSI,"V. harveyi biofilm; AI-2 spent medium, 2 μM, wild-type BB120",minor increase
same,reduction of QSI,"V. harveyi biofilm; AI-2 spent medium, BB170",44%
same,reduction of QSI,"V. harveyi biofilm; AI-2 spent medium, BB721",72%
same,reduction of QSI,"V. harveyi biofilm; AI-2 spent medium, wild-type",35%
same,QS inhibition versus concentration,"V. harveyi biofilm; all tested strains, mature biofilm",positive dose response
same,effect on QS,"V. harveyi biofilm; no AI-1 nor AI-2, BB170, 2 μM",no effect
same,reduction of QS,"V. harveyi biofilm; no AI-1 nor AI-2, BB170, highest tested concentration",62%
same,reduction of QSI activity,"V. harveyi biofilm; no AI-1 nor AI-2, BB721, 2 μM",38%
same,reduction of QSI activity,"V. harveyi biofilm; no AI-1 nor AI-2, BB721, 20 μM",63%
same,reduction of QSI activity,"V. harveyi biofilm; no AI-1 nor AI-2, BB721, 200 μM",79%
same,reduction of QSI activity,"V. harveyi biofilm; no AI-1 nor AI-2, BB886, 2 μM",30%
same,reduction of QSI activity,"V. harveyi biofilm; no AI-1 nor AI-2, BB886, 200 μM",40%
same,solubility,[4],not completely soluble
same,toxicity compared with Vero cells,MDCK cells [5],more toxic to MDCK cells than to Vero cells
same,cell release from T-flask,Vero cells [6],could be released from the flask by pipettetion
